Among the data in patent US8486931B2, “Substituted oxindole compounds” (Abbott GmbH & Co. KG, priority 2007, dated 2013) are Ki values, retold here.

The Ki is the dissociation constant of the complex between target and ligand, obtained from inhibition or displacement.

This experiment concerns the target T1, human vasopressin V1b receptor (Homo sapiens, UniProt P47901).
T1 construct: expressed in transfected cells; host or cells: CHO-K1 (cell line hV1b-3H2_CHO), membrane preparation
T1 sequence (P47901 1-424): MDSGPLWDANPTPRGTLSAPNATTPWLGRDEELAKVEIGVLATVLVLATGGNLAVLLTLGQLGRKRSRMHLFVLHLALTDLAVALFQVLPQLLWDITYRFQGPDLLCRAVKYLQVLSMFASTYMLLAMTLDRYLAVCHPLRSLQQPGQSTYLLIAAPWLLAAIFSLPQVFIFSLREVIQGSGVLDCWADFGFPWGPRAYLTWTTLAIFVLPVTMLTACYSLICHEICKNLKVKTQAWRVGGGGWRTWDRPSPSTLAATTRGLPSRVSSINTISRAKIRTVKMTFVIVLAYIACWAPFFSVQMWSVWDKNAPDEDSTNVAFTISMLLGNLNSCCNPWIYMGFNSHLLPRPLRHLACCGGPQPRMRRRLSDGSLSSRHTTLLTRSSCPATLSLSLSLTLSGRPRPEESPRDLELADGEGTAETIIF
Put plainly: Vasopressin V1b receptor binding assay. The following applies: membranes from CHO-K1 cells with stably expressed human V1b receptors, 1.5 nM 3H-AVP displacement; with more than one stereogenic center: the diastereomer with stronger affinity. The procedure:
Such compounds can be investigated in suitable assays which establish the affinity to a receptor, with the affinity constant Ki represening a measure of the potency of the compounds and a smaller value representing a larger potency. The compounds of the invention were tested in the following receptor binding assay for their affinity for the V1 b receptor.
Vasopressin V1 b Receptor Binding Assay:
The test substances were dissolved in a concentration of 10^−2 M in DMSO (dimethyl sulfoxide) and further diluted to 5×10^−4 M to 5×10^−9 M in DMSO. This series of DMSO predilutions was diluted 1:10 with assay buffer. The substance concentration was again diluted 1:5 in the assay mixture (2% DMSO in the mixture).
The membrane pellet was again homogenized and centrifuged as described and then taken up in 50 mM Tris-HCl, pH 7.4, homogenized and stored in aliquots frozen in liquid nitrogen at −190° C.
The incubation buffer was: 50 mM Tris, 10 mM MgCl2, 0.1% BSA, pH 7.4.
The nonspecific binding was determined with 1 μM AVP (Bachem #H1780). All determinations were carried out as triplicate determinations. After incubation (60 minutes at room temperature), the free radioligand was removed by vacuum filtration (Skatron cell harvester 7000) through Whatman GF/B glass fiber filter mats, and the filters were transferred into scintillation vials. The liquid scintillation measurement took place in a Tricarb model 2000 or 2200CA instrument (Packard). Conversion of the measured cpm into dpm was carried out with the aid of a standard quench series.
The binding parameters were calculated by nonlinear regression in SAS.
The above assay was used to measure the affinities of the compounds of the invention for the human vasopressin V1 b receptor and to determine with affinity constants (Ki).
Molecule `CCOc1ccccc1C1(N2CCN(c3ccncc3)CC2)C(=O)N(S(=O)(=O)c2ccc(F)c3cccnc23)c2ccc(C#N)cc21` (racemic) [Example 26, (±)-5-Cyano-3-(2-ethoxyphenyl)-1-(5-fluoroquinoline-8-sulfonyl)-3-(4-pyridin-4-yl-piperazin-1-yl)-2,3-dihydro-1H-indol-2-one] came in with a Ki of 10 to 50 nM. The molecule `CCOc1ccc(OC)cc1C1(N2CCC(N3CCN(CC)CC3)CC2)C(=O)N(S(=O)(=O)c2ccc(OC)cn2)c2ccc(C#N)cc21` (racemic) [Example 145, (±)-5-Cyano-3-(2-ethoxy-5-methoxy-phenyl)-3-[4-(4-ethyl-piperazin-1-yl)-piperidin-1-yl]-1-(5-methoxy-pyridine-2-sulfonyl)-2,3-dihydro-1H-indol-2-one] yielded an inhibition constant Ki of 10 to 50 nM. `CCOc1ccccc1C1(N2CCN(c3ccncc3)CC2)C(=O)N(S(=O)(=O)c2ccc(C)cn2)c2ccc(C#N)cc21` (racemic) [Example 11, (±)-5-Cyano-3-(2-ethoxyphenyl)-1-(5-methylpyridine-2-sulfonyl)-3-(4-pyridin-4-yl-piperazin-1-yl)-2,3-dihydro-1H-indol-2-one] gave a Ki of 10 to 50 nM. Turning to `CCOc1ccc(C)cc1C1(N2CCN(c3ccncc3)CC2)C(=O)N(S(=O)(=O)c2ccc(OC)cn2)c2ccc(C#N)cc21` (racemic) [Example 169, (±)-5-Cyano-3-(2-ethoxy-5-methyl-phenyl)-1-(5-methoxy-pyridine-2-sulfonyl)-3-(4-pyridin-4-yl-piperazin-1-yl)-2,3-dihydro-1H-indol-2-one], the Ki was < 10 nM.

Regarding `CCOc1ccc(OC)cc1C1(N2CCN(c3ccncc3)CC2)C(=O)N(S(=O)(=O)c2ccc(OC)c3cccnc23)c2ccc(C#N)cc21` (racemic) [Example 80, (±)-5-Cyano-3-(2-ethoxy-5-methoxyphenyl)-1-(5-methoxyquinoline-8-sulfonyl)-3-(4-pyridin-4-ylpiperazin-1-yl)-2,3-dihydro-1H-indol-2-one], the Ki is < 10 nM. For the molecule `COc1nc(Cl)ccc1C1(N2CCN(c3ccncc3)CC2)C(=O)N(S(=O)(=O)c2cccc3cccnc23)c2ccc(C#N)cc21` (racemic) [Example 19, (±)-5-Cyano-3-(6-chloro-2-methoxypyridin-3-yl)-3-(4-pyridin-4-ylpiperazin-1-yl)-1-(quinoline-8-sulfonyl)-2,3-dihydro-1H-indol-2-one], the Ki fell in the range of 10 to 50 nM.

“(±)-5-Cyano-3-(2-ethoxy-5-methoxyphenyl)-3-[4-(2-ethylpyridin-4-yl)piperazin-1-yl]-1-(quinoline-8-sulfonyl)-2,3-dihydro-1H-indol-2-one [Example 58]”: the Ki was < 10 nM. Turning to `CCOc1ccccc1C1(N2CCCN(c3ccncc3)CC2)C(=O)N(S(=O)(=O)c2ccc(OC)cn2)c2ccc(C#N)cc21` (racemic) [Example 78, (±)-5-Cyano-3-(2-ethoxyphenyl)-1-(5-methoxypyridine-2-sulfonyl)-3-(4-pyridin-4-yl-[1,4]diazepan-1-yl)-2,3-dihydro-1H-indol-2-one], the Ki lay within 10 to 50 nM.

For the molecule `COc1nc(Cl)ccc1C1(N2CCN(c3ccncc3)CC2)C(=O)N(S(=O)(=O)c2cccc3cccnc23)c2ccc(Cl)cc21` (racemic) [Example 10, (±)-5-Chloro-3-(6-chloro-2-methoxypyridin-3-yl)-3-(4-pyridin-4-ylpiperazin-1-yl)-1-(quinoline-8-sulfonyl)-1,3-dihydroindol-2-one], the Ki was < 10 nM. As to `CCOc1ccc(OC)cc1C1(N2CCN(c3ccncc3)CC2)C(=O)N(S(=O)(=O)c2ccc(C)cn2)c2ccc(C#N)cc21` (racemic) [Example 47, (±)-5-Cyano-3-(2-ethoxy-5-methoxyphenyl)-1-(5-methylpyridine-2-sulfonyl)-3-(4-pyridin-4-ylpiperazin-1-yl)-2,3-dihydro-1H-indol-2-one], the Ki was < 10 nM. Regarding `CCOc1nc(Cl)ccc1C1(N2CCN(c3ccncc3)CC2)C(=O)N(S(=O)(=O)c2ccc(OC)cn2)c2ccc(C#N)cc21` (racemic) [Example 36, (±)-5-Cyano-3-(6-chloro-2-ethoxypyridin-3-yl)-1-(5-methoxypyridine-2-sulfonyl)-3-(4-pyridin-4-ylpiperazin-1-yl)-2,3-dihydro-1H-indol-2-one], the inhibitory constant (Ki) is < 10 nM. `CCOc1cc(F)ccc1C1(N2CCN(c3ccncc3)CC2)C(=O)N(S(=O)(=O)c2cccc3cccnc23)c2ccc(C#N)cc21` (racemic) [Example 46, (±)-5-Cyano-3-(2-ethoxy-4-fluorophenyl)-3-(4-pyridin-4-ylpiperazin-1-yl)-1-(quinoline-8-sulfonyl)-2,3-dihydro-1H-indol-2-one] came in with a Ki of 10 to 50 nM. `CCOc1ccc(OC)cc1C1(N2CCN(c3ccnc(C)c3)CC2)C(=O)N(S(=O)(=O)c2ccc(C)cn2)c2ccc(C#N)cc21` (racemic) [Example 52, (±)-5-Cyano-3-(2-ethoxy-5-methoxyphenyl)-1-(5-methylpyridine-2-sulfonyl)-3-[4-(2-methylpyridin-4-yl)piperazin-1-yl]-2,3-dihydro-1H-indol-2-one]: the Ki fell in the range of 10 to 50 nM.

Turning to `CCOc1ccc(OC)cc1C1(N2CCC(N3CCNCC3)CC2)C(=O)N(S(=O)(=O)c2ccc(OC)cn2)c2ccc(C#N)cc21` (racemic) [Example 86, (±)-5-Cyano-3-(2-ethoxy-5-methoxyphenyl)-1-(5-methoxypyridine-2-sulfonyl)-3-(4-piperazin-1-ylpiperidin-1-yl)-2,3-dihydro-1H-indol-2-one], the Ki is < 10 nM.

Consider `CCOc1ccccc1C1(N2CCN(c3ccncc3)C(C)C2)C(=O)N(S(=O)(=O)c2cccc3cccnc23)c2ccc(C#N)cc21` (racemic) [Example 17, (±)-5-Cyano-3-(2-ethoxyphenyl)-3-(3-methyl-4-pyridin-4-ylpiperazin-1-yl)-1-(quinoline-8-sulfonyl)-2,3-dihydro-1H-indol-2-one], for which the Ki was 10 to 50 nM. `COc1ccc(OC)c(C2(N3CCN(c4ccncc4)CC3)C(=O)N(S(=O)(=O)c3cccc4c(C)ccnc34)c3ccc(C#N)cc32)c1` (racemic) [Example 50, (±)-5-Cyano-3-(2,5-dimethoxyphenyl)-1-(4-methylquinoline-8-sulfonyl)-3-(4-pyridin-4-yl-piperazin-1-yl)-2,3-dihydro-1H-indol-2-one] came in with a Ki of 10 to 50 nM. Take `CCOc1cc(F)ccc1C1(N2CCN(c3ccnc(C(C)C)c3)CC2)C(=O)N(S(=O)(=O)c2ccc(OC)cn2)c2ccc(C#N)cc21` (racemic) [Example 153, (±)-5-Cyano-3-(2-ethoxy-4-fluoro-phenyl)-3-[4-(2-isopropyl-pyridin-4-yl)-piperazin-1-yl]-1-(5-methoxy-pyridine-2-sulfonyl)-2,3-dihydro-1H-indol-2-one]: the Ki was < 10 nM. As to `CCOc1ccc(OC)cc1C1(N2CCN(c3ccnc(C)c3)CC2)C(=O)N(S(=O)(=O)c2ccc(OC)cn2)c2ccc(C#N)cc21` (single isomer, unassigned; (+)) [Example 164, (+)-5-Cyano-3-(2-ethoxy-5-methoxy-phenyl)-1-(5-methoxy-pyridine-2-sulfonyl)-3-[4-(2-methyl-pyridin-4-yl)-piperazin-l-yl]-2,3-dihydro-1H-indol-2-one], the Ki is < 10 nM.
